Source: PubChem BioAssay AID248 (DTP/NCI, 2004)
Values joined by “and” are separate entries in the source; they are usually repeats but may differ in a detail not shown here. Identical values can stand only once. Inconclusive results and toxic doses are left out. Rule as the data show it: active = T/C of 150% or more; inactive = T/C below 125%.

Tested on: L1210 leukemia ip in BDF1 mice, survival T/C
Assay: NCI In Vivo Anticancer Drug Screen. Data for tumor model L1210 Leukemia (intraperitoneal) in B6D2F1 (BDF1) mice
Conditions: endpoint: mean survival time, higher = longer survival
How it was run: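 Tumor cells were implanted, animals were treated, and survival was followed. The result divides the treated measurement by the vehicle-control measurement.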

[1] = dose: 12.5 mg/kg/injection, schedule: Q01DX009 (ip), vehicle: Klucel (hydroxypropylcellulose) (HPC)
[2] = dose: 100.0 mg/kg/injection, schedule: Q04DX003 (ip), vehicle: saline with Tween-80
[3] = dose: 200.0 mg/kg/injection, schedule: Q04DX003 (ip), vehicle: saline with Tween-80
[4] = dose: 400.0 mg/kg/injection, schedule: Q04DX003 (ip), vehicle: saline with Tween-80
[5] = dose: 100.0 mg/kg/injection, schedule: Q04DX003 (ip), vehicle: saline
[6] = dose: 200.0 mg/kg/injection, schedule: Q04DX003 (ip), vehicle: saline
[7] = dose: 400.0 mg/kg/injection, schedule: Q04DX003 (ip), vehicle: saline
[8] = dose: 100.0 mg/kg/injection, schedule: Q01DX009 (ip), vehicle: saline with Tween-80
[9] = dose: 200.0 mg/kg/injection, schedule: Q01DX009 (ip), vehicle: saline with Tween-80
[10] = dose: 400.0 mg/kg/injection, schedule: Q01DX009 (ip), vehicle: saline with Tween-80
[11] = dose: 100.0 mg/kg/injection, schedule: Q01DX001 (ip), vehicle: saline
[12] = dose: 100.0 mg/kg/injection, schedule: Q01DX009 (ip), vehicle: saline
[13] = dose: 200.0 mg/kg/injection, schedule: Q01DX001 (ip), vehicle: saline
[14] = dose: 200.0 mg/kg/injection, schedule: Q01DX009 (ip), vehicle: saline
[15] = dose: 400.0 mg/kg/injection, schedule: Q01DX001 (ip), vehicle: saline

Measured: T/C

O=C(COc1ccc(Cl)c(Cl)c1)N(Cc1ccccc1)Cc1ccc[n+](Cc2cccc(Cl)c2S(=O)(=O)F)c1
inactive: dose: 25.0 mg/kg/injection, schedule: Q04DX003 (ip), vehicle: saline with Tween-80 106 % of control | dose: 50.0 mg/kg/injection, schedule: Q04DX003 (ip), vehicle: saline with Tween-80 96 % of control

CCN(CC)C(=Nc1ccc(NC(=O)c2ccc(C(=O)Nc3ccc(N=C(c4ccccc4)N(CC)CC)cc3)cc2)cc1)c1ccccc1
inactive: dose: 15.0 mg/kg/injection, schedule: Q01DX Z (ip), vehicle: carboxymethylcellulose (CMC) 92 % of control | dose: 30.0 mg/kg/injection, schedule: Q01DX Z (ip), vehicle: carboxymethylcellulose (CMC) 93 % of control | dose: 60.0 mg/kg/injection, schedule: Q01DX Z (ip), vehicle: carboxymethylcellulose (CMC) 98 % of control | dose: 120.0 mg/kg/injection, schedule: Q01DX Z (ip), vehicle: carboxymethylcellulose (CMC) 114 % of control

CCOP(=S)(OCC)S/C(C(=O)NC)=C(/C)O
inactive: dose: 6.25 mg/kg/injection, schedule: Q01DX009 (ip), vehicle: Klucel (hydroxypropylcellulose) (HPC) 94 % of control | [1] 97 % of control | dose: 100.0 mg/kg/injection, schedule: Q04DX003 (sc), vehicle: olive oil, sesame oil, peanut oil 103 % of control | dose: 200.0 mg/kg/injection, schedule: Q04DX003 (sc), vehicle: olive oil, sesame oil, peanut oil 106 % of control

NC(=S)NNc1ccccc1
inactive: dose: 100.0 mg/kg/injection, schedule: Q04DX002 (ip), vehicle: saline with Tween-80 105 % of control | dose: 200.0 mg/kg/injection, schedule: Q04DX002 (ip), vehicle: saline with Tween-80 105 % of control

O=C(COc1ccc(Cl)cc1)C1CSc2ccc3ccccc3c21 (stereo not given)
inactive: dose: 100.0 mg/kg/injection, schedule: Q04DX003 (ip), vehicle: saline sonified 88 % of control | dose: 200.0 mg/kg/injection, schedule: Q04DX003 (ip), vehicle: saline sonified 89 % of control | dose: 400.0 mg/kg/injection, schedule: Q04DX003 (ip), vehicle: saline sonified 88 % of control

O=C1C(Cl)=C(Nc2ccc(Cl)c(Cl)c2)C(=O)c2ccccc21
inactive: [2] 98 % of control | [3] 92 % of control | [4] 98 % of control

CCOC(=O)NC(=O)Nc1ncn[nH]1
inactive: [5] 97 % of control | [6] 94 % of control | [7] 94 % of control

COC1(OC)C2C=CC1C1C2C2C1C1C=CC2C1(OC)OC (stereo not given)
inactive: [8] 103 % of control | [2] 94 % of control | [9] 95 % of control | [3] 92 % of control | [10] 100 % of control | [4] 89 % of control

ClCc1ccc(-c2ccc(CCl)cc2)cc1
inactive: dose: 30.0 mg/kg/injection, schedule: Q01DX015 (ip), vehicle: carboxymethylcellulose (CMC) 116 % of control | dose: 60.0 mg/kg/injection, schedule: Q01DX015 (ip), vehicle: carboxymethylcellulose (CMC) 106 % of control | dose: 100.0 mg/kg/injection, schedule: Q01DX001 (ip), vehicle: carboxymethylcellulose (CMC) 100 % of control | dose: 120.0 mg/kg/injection, schedule: Q01DX015 (ip), vehicle: carboxymethylcellulose (CMC) 102 % of control | dose: 200.0 mg/kg/injection, schedule: Q01DX001 (ip), vehicle: carboxymethylcellulose (CMC) 104 % of control | dose: 240.0 mg/kg/injection, schedule: Q01DX015 (ip), vehicle: carboxymethylcellulose (CMC) 98 % of control | dose: 300.0 mg/kg/injection, schedule: Q01DX015 (ip), vehicle: carboxymethylcellulose (CMC) 108 % of control | dose: 400.0 mg/kg/injection, schedule: Q01DX001 (ip), vehicle: carboxymethylcellulose (CMC) 105 % of control

O=C(O)C(CCC(C(=O)O)c1ccccc1)c1ccccc1 (stereo not given)
inactive: dose: 75.0 mg/kg/injection, schedule: Q01DX001 (ip), vehicle: other 110 % of control | dose: 150.0 mg/kg/injection, schedule: Q01DX001 (ip), vehicle: other 116 % of control | dose: 300.0 mg/kg/injection, schedule: Q01DX001 (ip), vehicle: other 95 % of control

NCCCP(c1ccccc1)c1ccccc1
inactive: dose: 75.0 mg/kg/injection, schedule: Q01DX001 (ip), vehicle: saline 105 % of control | dose: 150.0 mg/kg/injection, schedule: Q01DX001 (ip), vehicle: saline 92 % of control

CCOC(=O)c1ccccc1N(O)C(=O)Nc1ccc(C)cc1
inactive: [2] 97 % of control | [3] 105 % of control | [4] 109 % of control

COc1ccc(S(=O)O)cc1NC(C)=O
inactive: [11] 105 % of control | [12] 94 % of control | [5] 92 % of control and 100 % of control | [13] 96 % of control | [14] 87 % of control | [6] 93 % of control and 95 % of control | [15] 98 % of control | dose: 400.0 mg/kg/injection, schedule: Q01DX009 (ip), vehicle: saline 86 % of control | [7] 91 % of control and 93 % of control

Nc1ccn(C2OC(CO)C(O)C(O)C2N)c(=O)n1 (stereo not given)
inactive: [11] 97 % of control | [13] 103 % of control | [15] 100 % of control

COc1ccc(C2OC23CC(C)(C)c2ccccc2C3=O)cc1 (stereo not given)
inactive: [2] 93 % of control | [3] 89 % of control | [4] 94 % of control

CCOc1ccc(C(=O)Nc2c(C)cc(C)cc2C)cc1
inactive: [8] 96 % of control | [2] 100 % of control | [9] 96 % of control | [3] 93 % of control | [10] 101 % of control | [4] 94 % of control

CNCC1C(c2ccc(OC)cc2)C1c1ccc(OC)cc1 (stereo not given)
inactive: dose: 12.5 mg/kg/injection, schedule: Q04DX002 (ip), vehicle: Klucel (hydroxypropylcellulose) (HPC) 102 % of control | dose: 25.0 mg/kg/injection, schedule: Q04DX002 (ip), vehicle: Klucel (hydroxypropylcellulose) (HPC) 108 % of control | dose: 50.0 mg/kg/injection, schedule: Q04DX002 (ip), vehicle: Klucel (hydroxypropylcellulose) (HPC) 94 % of control

CN=NNc1ccccc1
inactive: dose: 12.0 mg/kg/injection, schedule: Q01DX009 (ip), vehicle: saline 114 % of control | [1] 100 % of control | dose: 18.0 mg/kg/injection, schedule: Q01DX009 (ip), vehicle: saline 118 % of control | dose: 25.0 mg/kg/injection, schedule: Q01DX009 (ip), vehicle: Klucel (hydroxypropylcellulose) (HPC) 97 % of control | dose: 50.0 mg/kg/injection, schedule: Q01DX009 (ip), vehicle: Klucel (hydroxypropylcellulose) (HPC) 102 % of control | dose: 75.0 mg/kg/injection, schedule: Q04DX003 (ip), vehicle: saline with Tween-80 113 % of control | [2] 121 % of control
active: dose: 100.0 mg/kg/injection, schedule: Q01DX009 (ip), vehicle: Klucel (hydroxypropylcellulose) (HPC) 156 % of control | dose: 150.0 mg/kg/injection, schedule: Q04DX003 (ip), vehicle: saline with Tween-80 164 % of control | dose: 337.0 mg/kg/injection, schedule: Q04DX003 (ip), vehicle: saline with Tween-80 153 % of control

O=C1NC(=S)S/C1=C\c1ccc([N+](=O)[O-])cc1
inactive: [11] 90 % of control

COC(=O)C1C2C=CC(O2)C1C(=O)OC (stereo not given)
inactive: dose: 100.0 mg/kg/injection, schedule: Q01DX009 (ip), vehicle: carboxymethylcellulose (CMC) 98 % of control | dose: 100.0 mg/kg/injection, schedule: Q01DX009 (ip), vehicle: other 101 % of control | dose: 200.0 mg/kg/injection, schedule: Q01DX009 (ip), vehicle: carboxymethylcellulose (CMC) 102 % of control | dose: 200.0 mg/kg/injection, schedule: Q01DX009 (ip), vehicle: other 102 % of control | dose: 400.0 mg/kg/injection, schedule: Q01DX009 (ip), vehicle: carboxymethylcellulose (CMC) 96 % of control | dose: 400.0 mg/kg/injection, schedule: Q01DX009 (ip), vehicle: other 101 % of control

Nc1ccc2c(=O)[nH][nH]c(=O)c2c1
inactive: [8] 98 % of control | [9] 98 % of control | [10] 95 % of control

CN(C)CCCNc1nc(Cl)nc(Cl)n1
inactive: dose: 50.0 mg/kg/injection, schedule: Q01DX009 (ip), vehicle: saline 96 % of control | [12] 92 % of control | [14] 96 % of control

C[N+]1(C)CCS(=O)(=O)CC1
inactive: dose: 100.0 mg/kg/injection, schedule: Q04DX002 (ip), vehicle: Klucel (hydroxypropylcellulose) (HPC) 104 % of control | dose: 200.0 mg/kg/injection, schedule: Q04DX002 (ip), vehicle: Klucel (hydroxypropylcellulose) (HPC) 110 % of control

CC(C)(CO)CCl
inactive: dose: 50.0 mg/kg/injection, schedule: Q01DX009 (ip), vehicle: saline with Tween-80 91 % of control | [8] 95 % of control | [9] 88 % of control
